One may read the IC50 as the concentration that inhibits the measured activity by half.

The record followed here is patent US10004732B2 (Novartis AG, priority 2014, dated 2018).

Data set [1] concerns the target T1, PI 3-kinase delta (Homo sapiens, UniProt O00329). Kind of data set: TR-FRET Adapta assay, assay F. Conditions: read-out: Assay F PI3Kδ IC50. (TR-FRET usually uses a lanthanide donor and a delayed reading to cut background.)
Target sequence in this assay (O00329 whole entry): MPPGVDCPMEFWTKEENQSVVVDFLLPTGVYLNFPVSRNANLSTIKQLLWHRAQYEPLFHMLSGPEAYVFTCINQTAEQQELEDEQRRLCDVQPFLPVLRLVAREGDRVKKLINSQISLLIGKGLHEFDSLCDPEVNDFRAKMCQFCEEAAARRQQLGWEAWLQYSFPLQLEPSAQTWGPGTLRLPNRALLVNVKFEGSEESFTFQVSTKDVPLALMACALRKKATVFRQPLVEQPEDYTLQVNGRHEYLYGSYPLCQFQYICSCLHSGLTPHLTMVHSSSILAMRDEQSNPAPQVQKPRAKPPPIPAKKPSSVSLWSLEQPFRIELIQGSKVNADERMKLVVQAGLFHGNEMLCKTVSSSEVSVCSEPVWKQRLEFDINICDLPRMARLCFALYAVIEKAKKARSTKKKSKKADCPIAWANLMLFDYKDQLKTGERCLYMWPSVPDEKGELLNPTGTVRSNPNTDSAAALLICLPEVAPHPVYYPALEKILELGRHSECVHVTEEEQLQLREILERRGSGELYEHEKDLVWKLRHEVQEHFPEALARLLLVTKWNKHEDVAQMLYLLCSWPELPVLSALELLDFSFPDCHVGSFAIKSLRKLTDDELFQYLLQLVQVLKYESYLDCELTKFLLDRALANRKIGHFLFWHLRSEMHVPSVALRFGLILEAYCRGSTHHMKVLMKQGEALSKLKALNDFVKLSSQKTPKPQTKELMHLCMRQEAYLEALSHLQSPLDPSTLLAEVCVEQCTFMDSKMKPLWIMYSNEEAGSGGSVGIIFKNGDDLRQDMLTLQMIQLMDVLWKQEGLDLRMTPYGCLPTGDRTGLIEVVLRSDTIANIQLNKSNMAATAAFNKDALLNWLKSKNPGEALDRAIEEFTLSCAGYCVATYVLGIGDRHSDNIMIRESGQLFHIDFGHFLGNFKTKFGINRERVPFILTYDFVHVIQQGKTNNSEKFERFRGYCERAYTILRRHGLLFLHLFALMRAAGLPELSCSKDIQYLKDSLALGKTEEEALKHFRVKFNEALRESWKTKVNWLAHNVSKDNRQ
Target sequence in this assay (P27986 461-568 partner): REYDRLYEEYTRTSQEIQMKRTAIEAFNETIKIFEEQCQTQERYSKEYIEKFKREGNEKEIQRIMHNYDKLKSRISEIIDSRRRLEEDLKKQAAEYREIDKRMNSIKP
The target in data set [2] is T2, PI 3-kinase alpha (Homo sapiens, UniProt P42336). Kind of data set: Kinase Glo Luminescent Kinase Assay (Kglo), assay A. The format is biochemical. Conditions: read-out: Assay A PI3Kα IC50. Background: Kinase-Glo measures the ATP left after a reaction by luminescence.
Target sequence in this assay (P42336 whole entry): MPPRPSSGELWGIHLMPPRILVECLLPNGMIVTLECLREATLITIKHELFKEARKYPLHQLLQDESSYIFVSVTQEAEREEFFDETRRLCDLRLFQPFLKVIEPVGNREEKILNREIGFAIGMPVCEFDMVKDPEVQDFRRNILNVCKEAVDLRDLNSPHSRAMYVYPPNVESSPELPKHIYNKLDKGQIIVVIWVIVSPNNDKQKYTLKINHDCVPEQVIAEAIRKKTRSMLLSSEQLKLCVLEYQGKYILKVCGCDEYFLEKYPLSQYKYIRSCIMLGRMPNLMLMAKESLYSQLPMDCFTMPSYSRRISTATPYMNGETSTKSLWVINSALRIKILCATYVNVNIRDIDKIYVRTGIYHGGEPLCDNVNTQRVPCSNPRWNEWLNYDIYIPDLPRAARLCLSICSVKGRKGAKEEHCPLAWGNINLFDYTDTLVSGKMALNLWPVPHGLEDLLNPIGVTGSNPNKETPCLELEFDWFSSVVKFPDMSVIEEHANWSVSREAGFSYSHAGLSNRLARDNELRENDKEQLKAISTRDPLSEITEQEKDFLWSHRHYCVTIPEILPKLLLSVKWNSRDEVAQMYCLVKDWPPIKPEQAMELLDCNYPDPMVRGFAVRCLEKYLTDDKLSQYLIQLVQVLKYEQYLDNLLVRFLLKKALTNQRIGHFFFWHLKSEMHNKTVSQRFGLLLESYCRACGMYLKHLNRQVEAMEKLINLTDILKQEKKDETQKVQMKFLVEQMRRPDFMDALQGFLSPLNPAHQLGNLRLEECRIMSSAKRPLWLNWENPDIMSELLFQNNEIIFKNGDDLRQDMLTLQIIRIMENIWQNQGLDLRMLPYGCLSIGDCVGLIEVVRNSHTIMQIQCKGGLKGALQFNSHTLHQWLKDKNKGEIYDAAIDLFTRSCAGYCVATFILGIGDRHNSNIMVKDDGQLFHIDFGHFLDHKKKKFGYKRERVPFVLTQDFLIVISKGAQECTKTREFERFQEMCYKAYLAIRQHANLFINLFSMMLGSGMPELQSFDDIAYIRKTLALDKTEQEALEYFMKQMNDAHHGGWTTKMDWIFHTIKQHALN
Data set [3] concerns the target T2, PI 3-kinase alpha. Kind of data set: Cellular assay H1, p-Akt (S473) in Rat-1 cells, Surefire format. The class given is cell-based. Conditions: non-asterisked data: version H1 (Surefire format), Rat-1 cells; read-out: Assay H PI3Kα IC50.
Target sequence in this assay (P42336 whole entry): as above
Target sequence in this assay (Q63787 whole entry partner): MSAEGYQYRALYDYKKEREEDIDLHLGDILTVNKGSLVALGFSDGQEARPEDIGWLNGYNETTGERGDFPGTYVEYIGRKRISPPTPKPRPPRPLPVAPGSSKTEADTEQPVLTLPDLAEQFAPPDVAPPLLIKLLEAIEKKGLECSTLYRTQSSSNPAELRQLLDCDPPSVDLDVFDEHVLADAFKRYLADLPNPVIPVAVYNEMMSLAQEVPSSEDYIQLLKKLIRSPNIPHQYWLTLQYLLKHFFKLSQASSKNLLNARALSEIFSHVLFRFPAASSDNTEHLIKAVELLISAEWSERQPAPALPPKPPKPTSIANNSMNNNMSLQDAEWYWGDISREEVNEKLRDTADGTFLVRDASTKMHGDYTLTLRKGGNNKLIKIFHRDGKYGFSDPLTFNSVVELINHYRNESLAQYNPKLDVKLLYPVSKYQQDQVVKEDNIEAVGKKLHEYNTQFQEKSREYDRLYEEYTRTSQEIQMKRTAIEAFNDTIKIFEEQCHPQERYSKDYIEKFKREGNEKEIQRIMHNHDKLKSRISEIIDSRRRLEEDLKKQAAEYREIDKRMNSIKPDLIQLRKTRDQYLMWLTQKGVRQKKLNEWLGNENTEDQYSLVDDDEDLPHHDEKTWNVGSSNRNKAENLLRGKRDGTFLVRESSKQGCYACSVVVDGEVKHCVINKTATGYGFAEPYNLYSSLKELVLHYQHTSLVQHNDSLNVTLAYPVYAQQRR
Data set [4] addresses T1, PI 3-kinase delta. Kind of data set: Cellular assay J1, p-Akt (S473) in Rat-1 cells, Surefire format. The format is cell-based. Conditions: non-asterisked data: version J1 (Surefire format), Rat-1 cells; read-out: Assay J PI3Kδ IC50.
Target sequence in this assay (O00329 whole entry): as the sequence (O00329 whole entry) above
Target sequence in this assay (Q63787 whole entry partner): as the sequence (Q63787 whole entry partner) above
Data set [5] deals with PI 3-kinase gamma (Homo sapiens, UniProt P48736). Kind of data set: TR-FRET Adapta assay, assay E. The class given is biochemical. Conditions: read-out: Assay E PI3Kγ IC50.
Protocol: TR-FRET Adapta Assay for PI 3-Kinase Gamma (E), PI 3-Kinase Delta (F)
The TR-FRET Adapta™ Universal Kinase Assay Kit was purchased from Invitrogen Corporation (Carlsbad/CA, USA) (Cat. No. PV5099).
PIK3CD substrate phosphatidylinositol (PI) was obtained from Invitrogen (vesicules consisting of 2 mM phosphatidylinositol (PI) in 50 mM HEPES pH7.5; Cat. No. PV5371). PIK3CG substrate phosphatidylinositol-4,5-bisphosphate (PIP(4,5)2 was obtained from Invitrogen (PIP2:PS large unilamellar vesicules consisting of 1 mM PIP2: 19 mM PS in 50 mM HEPES pH7.5, 3 mM MgCl2, 1 mM EGTA; Cat. No. PV5100).
Time-Resolved Fluorescence Resonance Energy Transfer (TR-FRET) is a technology based on energy transfer between two adjacent dyes, from an excited electron in one dye (the donor) to an electron of an adjacent dye (the acceptor) through resonance, then released as a photon. This energy transfer is detected by an increase in the fluorescence emission of the acceptor, and a decrease in the fluorescence emission of the donor. TR-FRET assays for protein kinases use a long-lifetime lanthanide Terbium or Europium chelates as the donor species which overcome interference from compound autofluorescence or light scatter from precipitated compounds, by introducing a delay after excitation by a flashlamp excitation source. Results are often expressed as a ratio of the intensities of the acceptor and donor fluorophores. The ratiometric nature of such a value corrects for differences in assay volumes between wells, as well as corrects for quenching effects due to colored compounds. The Adapta™ assay can be divided into two phases: a kinase reaction phase and an ADP detection phase. In the kinase reaction phase, all kinase reaction components are added to the well and the reaction is allowed to incubate for a set period of time specific for each kinase. […] In the presence of an inhibitor, the amount of ADP formed by the kinase reaction is reduced, and the resulting intact antibody-tracer interaction maintains a high TR-FRET signal.
50 nL of compound dilutions were dispensed onto white 384-well small volume polystyrene plate. Then 5 μL of either PI 3-kinase gamma or PI 3-kinase delta and lipid substrate (PI or PIP2:PS) followed by 5 μL of ATP (final assay volume 10 μL) are incubated at RT. The standard reaction buffer for the Adapta™ TR-FRET assay contained 10 mM Tris-HCl pH 7.5, 3 mM MgCl2, 50 mM NaCl, 1 mM DTT, 0.05% CHAPS 3-[(3-cholamidopropyl)dimethylammonio]-1-propanesulfonate).
Data are analyzed using Excel fit software or Graphpad Prism. IC50 values were derived by fitting a sigmoidal dose-response curve to a plot of assay readout over inhibitor concentration. All fits were performed with the program XLfit4 (ID Business Solutions, Guildford, UK). […] All fits were performed with the program XLfit4 (ID Business Solutions, Guildford, UK).
Data set [6] concerns the target PI 4-kinase beta (Homo sapiens, UniProt Q9UBF8). Kind of data set: Kinase Glo Luminescent Kinase Assay (Kglo), assay D. Conditions: read-out: Assay D PI4Kβ IC50. The class given is biochemical.
A short description of data set [7]: Microsomal clearance assay (M). Conditions: intrinsic clearance in rat liver microsomes. In general terms: Liver microsomes are a subcellular fraction often used to study metabolism.
Protocol: The experiments were performed in 96-well glass plates at 37° C. on an automated Tecan EVO platform. Test compounds at a concentration of 10 mM in pure DMSO were diluted 1:1000 in water to 10 μM. […] Reactions were initiated by the addition of 150 μL of a cofactor solution containing 2 mM NADPH.
The target in data set [8] is Vps34 (Homo sapiens, UniProt Q8NEB9). Kind of data set: Kinase Glo Luminescent Kinase Assay (Kglo), assay C. The class given is biochemical. Conditions: read-out: Assay C VPS34 IC50.
Data set [9] deals with T3, PI 3-kinase beta (Homo sapiens, UniProt P42338). Nature of the data set: Cellular assay I1, p-Akt (S473) in Rat-1 cells, Surefire format. The class given is cell-based. Conditions: non-asterisked data: version I1 (Surefire format), Rat-1 cells; read-out: Assay I PI3Kβ IC50.
For data set [10], the target named is T3, PI 3-kinase beta. Nature of the data set: Kinase Glo Luminescent Kinase Assay (Kglo), assay B. The format is biochemical. Conditions: read-out: Assay B PI3Kβ IC50.
Target sequence in this assay (P42338 whole entry): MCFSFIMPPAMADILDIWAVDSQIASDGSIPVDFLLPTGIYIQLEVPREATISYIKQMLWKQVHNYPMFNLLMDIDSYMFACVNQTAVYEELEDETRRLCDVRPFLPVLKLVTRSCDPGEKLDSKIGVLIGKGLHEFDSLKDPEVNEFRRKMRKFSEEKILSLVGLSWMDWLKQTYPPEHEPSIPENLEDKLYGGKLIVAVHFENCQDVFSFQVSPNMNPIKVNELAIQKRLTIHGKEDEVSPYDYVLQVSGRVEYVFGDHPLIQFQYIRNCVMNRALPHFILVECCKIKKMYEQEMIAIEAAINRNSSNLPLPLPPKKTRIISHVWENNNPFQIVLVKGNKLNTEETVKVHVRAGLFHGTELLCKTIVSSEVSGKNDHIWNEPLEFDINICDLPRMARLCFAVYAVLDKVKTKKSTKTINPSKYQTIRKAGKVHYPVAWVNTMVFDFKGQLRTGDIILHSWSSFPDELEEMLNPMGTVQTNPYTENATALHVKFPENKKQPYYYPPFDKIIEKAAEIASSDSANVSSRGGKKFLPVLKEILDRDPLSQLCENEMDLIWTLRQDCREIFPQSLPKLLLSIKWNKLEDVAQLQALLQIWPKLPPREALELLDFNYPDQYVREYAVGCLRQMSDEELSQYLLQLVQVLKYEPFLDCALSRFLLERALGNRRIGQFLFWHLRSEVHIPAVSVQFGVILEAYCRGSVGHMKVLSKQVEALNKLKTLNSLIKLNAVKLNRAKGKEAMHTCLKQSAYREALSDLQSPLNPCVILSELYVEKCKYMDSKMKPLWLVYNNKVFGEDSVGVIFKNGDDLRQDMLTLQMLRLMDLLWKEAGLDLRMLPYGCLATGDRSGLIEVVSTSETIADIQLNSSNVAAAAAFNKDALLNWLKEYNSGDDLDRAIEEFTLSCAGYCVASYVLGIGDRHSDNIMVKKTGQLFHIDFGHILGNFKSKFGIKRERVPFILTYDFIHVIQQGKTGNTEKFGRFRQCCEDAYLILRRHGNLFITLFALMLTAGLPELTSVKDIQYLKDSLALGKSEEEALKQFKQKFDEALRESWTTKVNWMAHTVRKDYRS
Target sequence in this assay (P27986 461-568 partner): as the sequence (P27986 461-568 partner) above
In data set [11] the target is mTOR (Homo sapiens, UniProt P42345). Nature of the data set: Lanthascreen kinase binding assay, assay G. Conditions: read-out: Assay G mTOR IC50.
Protocol: Lanthascreen™ Kinase Binding Assay for mTOR (G)
Binding of an inhibitor to the kinase competes for binding with the tracer, resulting in a loss of FRET.
50 nL of compound dilutions were dispensed onto white 384-well small volume polystyrene plate.

Vps34, sequence (Q8NEB9 whole entry, species assumed): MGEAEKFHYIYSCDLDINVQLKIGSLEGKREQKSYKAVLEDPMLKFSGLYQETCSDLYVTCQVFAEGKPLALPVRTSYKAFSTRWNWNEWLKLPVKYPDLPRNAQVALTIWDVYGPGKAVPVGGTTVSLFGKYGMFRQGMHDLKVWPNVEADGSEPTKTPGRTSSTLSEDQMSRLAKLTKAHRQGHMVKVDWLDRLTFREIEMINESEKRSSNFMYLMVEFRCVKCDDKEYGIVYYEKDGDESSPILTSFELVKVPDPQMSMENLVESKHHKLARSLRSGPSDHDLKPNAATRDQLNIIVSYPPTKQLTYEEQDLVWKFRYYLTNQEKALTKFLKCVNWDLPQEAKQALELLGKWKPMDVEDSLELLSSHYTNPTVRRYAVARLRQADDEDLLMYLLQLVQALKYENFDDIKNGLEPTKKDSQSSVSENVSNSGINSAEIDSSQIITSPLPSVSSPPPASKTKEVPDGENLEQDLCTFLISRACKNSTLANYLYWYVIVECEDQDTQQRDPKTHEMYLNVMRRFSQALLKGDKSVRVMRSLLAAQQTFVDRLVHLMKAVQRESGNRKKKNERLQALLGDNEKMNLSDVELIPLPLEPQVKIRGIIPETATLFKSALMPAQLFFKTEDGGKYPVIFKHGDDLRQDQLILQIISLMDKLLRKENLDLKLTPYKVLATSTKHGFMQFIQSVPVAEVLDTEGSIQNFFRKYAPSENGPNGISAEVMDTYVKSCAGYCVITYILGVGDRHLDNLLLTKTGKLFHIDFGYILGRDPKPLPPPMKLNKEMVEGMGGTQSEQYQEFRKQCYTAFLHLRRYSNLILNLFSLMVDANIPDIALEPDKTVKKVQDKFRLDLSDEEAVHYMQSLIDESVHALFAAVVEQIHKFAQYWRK

Consider `Cc1ncc(S(=O)(=O)NCC(C)(C)O)cc1-c1cnc(N)c(-n2cncn2)n1` [Example 53, 5-(5-Amino-6-(1H-1,2,4-triazol-1-yl)pyrazin-2-yl)-N-(2-hydroxy-2-methylpropyl)-6-methylpyridine-3-sulfonamide], for which the IC50 in data set [1] is 3.7 µM; in [2] it was 1.7 µM; in data set [3], more than 10 µM; in data set [4] it was more than 10 µM; in [5] it was 0.69 µM; in data set [6], more than 10 µM. Also, the values for the IC50 in data set [8], in data set [9] and in data set [10] were more than 10 µM, more than 10 µM and 7 µM, respectively. Also, the “Assay M RLM CI(int)” value in [7] came to 29 µL/min/mg.
As to `Cc1ccc(S(=O)(=O)NCC(C)(C)O)cc1-c1cnc(N)c(-c2cn(C)nn2)n1` [Example 81, 3-(5-Amino-6-(1-methyl-1H-1,2,3-triazol-4-yl)pyrazin-2-yl)-N-(2-hydroxy-2-methylpropyl)-4-methylbenzenesulfonamide], the IC50 in data set [1] is 2.5 µM; in [2] it was 2.6 µM; in [3], more than 10 µM; in data set [4] it was 4.04 µM; in data set [5], 0.077 µM; in data set [6], 9 µM. Moreover, the IC50 in data set [8] was more than 10 µM; in data set [9], more than 10 µM; in data set [10], 6.3 µM; in [11], more than 10 µM. Moreover, the “Assay M RLM CI(int)” value in data set [7] was 29 µL/min/mg.
Consider `Cc1ccc(S(=O)(=O)NOC(C)C)cc1-c1cnc(N)c(-n2cncn2)n1` [Example 112.3, 3-(5-Amino-6-(1H-1,2,4-triazol-1-yl)pyrazin-2-yl)-N-isopropoxy-4-methylbenzenesulfonamide], for which the IC50 is 0.26 µM in data set [1]; 0.36 µM in data set [2]; 0.4 µM in data set [3]; 0.86 µM in [4]; 1.2 µM in data set [6]; more than 10 µM in data set [8]. Moreover, the IC50 in data set [9] is more than 3 µM; in [10] it was 1.1 µM; in [11], 1.36 µM. For the same molecule, the “Assay M RLM CI(int)” value in data set [7] was 123 µL/min/mg.
As for `Cc1ccc(S(=O)(=O)NCCC(C)(C)O)cc1-c1cnc(N)c(-c2cnc(Cl)cc2C)n1` [Example 119.9], the IC50 stood at 0.9 µM in data set [1]; 0.33 µM in [2]; 1.92 µM in [3]; 4.23 µM in data set [4]; 0.178 µM in data set [5]; 0.69 µM in data set [6]. Also, the IC50 was more than 9.1 µM in data set [8], 3.07 µM in data set [9], 7.78 µM in data set [10] and more than 9.1 µM in data set [11].
Regarding `Cc1ccc(S(=O)(=O)NCCC(C)(C)O)cc1-c1cnc(N)c(-c2ccncc2F)n1` [Example 119.11], the IC50 in [1] was 1.1 µM; in data set [2], 0.45 µM; in [3], 2.54 µM; in data set [4], 6.94 µM; in data set [5], 0.303 µM; in data set [6], more than 9.1 µM. In addition, the IC50 is more than 9.1 µM in data set [8], 3.56 µM in data set [9], more than 9.1 µM in [10] and more than 9.1 µM in [11].
Turning to `COc1ccc(-c2nc(-c3cc(S(=O)(=O)NCCC(C)(C)O)ccc3C)cnc2N)c(C)n1` [Example 119.14], the IC50 worked out at 1.44 µM in [1]; 1.16 µM in data set [2]; 3.14 µM in [3]; 4.96 µM in [4]; 0.667 µM in data set [5]; 7.35 µM in [6]. For the same molecule, the IC50 in data set [8] was more than 9.1 µM; in data set [9], 4.39 µM; in [10], more than 9.1 µM; in data set [11], 8.53 µM.
For `Cc1ccc(S(=O)(=O)NCCC(C)(C)O)cc1-c1cnc(N)c(-c2ccoc2)n1` [Example 119.15], the IC50 came out at 0.96 µM in [1]; 1.66 µM in data set [2]; 1.48 µM in data set [3]; 1.65 µM in data set [4]; 0.162 µM in [5]; 4.86 µM in [6]. The IC50 in data set [8] is more than 9.1 µM; in [9], 7.33 µM; in data set [10], 8.81 µM; in data set [11] it was more than 9.1 µM.
As to `Cc1ccc(S(=O)(=O)NCCC(C)(C)O)cc1-c1cnc(N)c(-c2ccc(N3CCCC3)nc2)n1` [Example 119.17], the IC50 in [1] was 2.54 µM; in [2] it was 1.45 µM; in [3], 2.81 µM; in data set [4], 7.16 µM; in data set [5], 0.362 µM; in data set [6], 1.56 µM. In addition, the IC50 in data set [8] was more than 9.1 µM; in data set [9] it was 6.17 µM; in data set [10], more than 9.1 µM; in [11], more than 9.1 µM.
Turning to `Cc1ccc(S(=O)(=O)NCCC(C)(C)O)cc1-c1cnc(N)c(-c2ccc(F)nc2)n1` [Example 119.18], the IC50 was 0.58 µM in [1]; 0.49 µM in data set [2]; 1.32 µM in [3]; 1.3 µM in data set [4]; 0.248 µM in data set [5]; 8.19 µM in [6]. The IC50 in data set [8] is more than 9.1 µM; in data set [9], 4.48 µM; in data set [10], 8.04 µM; in data set [11] it was more than 9.1 µM.
As to `Cc1ccc(S(=O)(=O)NCCC(C)(C)O)cc1-c1cnc(N)c(-c2cnn(C)c2C)n1` [Example 119.19], the IC50 in data set [1] is more than 9.1 µM; in data set [2] it was more than 9.1 µM; in data set [3], more than 10 µM; in data set [4], more than 10 µM; in data set [5], 3.47 µM; in data set [6], more than 9.1 µM. In addition, the IC50 in data set [8] is more than 9.1 µM; in data set [9] it was more than 10 µM; in [10], more than 9.1 µM; in [11], more than 9.1 µM.
Consider `Cc1ccc(S(=O)(=O)NCCC(C)(C)O)cc1-c1cnc(N)c(-c2ccc(N3CCOCC3)nc2)n1` [Example 119.21], for which the IC50 came out at 2.18 µM in data set [1]; 1.73 µM in data set [2]; 5.16 µM in [3]; 7.48 µM in data set [4]; 0.401 µM in [5]; 3.83 µM in data set [6]. In addition, the IC50 in [8] was more than 9.1 µM; in data set [9], more than 10 µM; in [10], more than 9.1 µM; in data set [11] it was more than 9.1 µM.
In the case of `Cc1ccc(S(=O)(=O)NCCC(C)(C)O)cc1-c1cnc(N)c(-c2c[nH]nc2C)n1` [Example 119.22], the IC50 is 0.53 µM in data set [1]; 0.57 µM in data set [2]; 4.41 µM in data set [3]; more than 10 µM in data set [4]; 0.157 µM in data set [5]; 2.19 µM in [6]. In addition, the IC50 in [8] is more than 9.1 µM; in [9], more than 10 µM; in data set [10], 1.93 µM; in data set [11], 2.34 µM.
With `Cc1ccc(S(=O)(=O)NCCC(C)(C)O)cc1-c1cnc(N)c(-c2ccc(N3CCCCC3)nc2)n1` [Example 119.23], the IC50 stood at 2.04 µM in data set [1]; 1.34 µM in data set [2]; 1.97 µM in [3]; 3.53 µM in [4]; 0.525 µM in data set [5]; 0.94 µM in data set [6]. Also, the IC50 in data set [8] is more than 9.1 µM; in data set [9] it was 8.49 µM; in data set [10], more than 9.1 µM; in data set [11], 7.6 µM.
Regarding `Cc1ccc(S(=O)(=O)NCCC(C)(C)O)cc1-c1cnc(N)c(-c2ccc(OC3CCOCC3)nc2)n1` [Example 119.24], the IC50 came out at 1.67 µM in data set [1]; 1.09 µM in [2]; 2.6 µM in data set [3]; 3.17 µM in data set [4]; 0.761 µM in data set [5]; 3.4 µM in [6]. For the same molecule, the IC50 is more than 9.1 µM in data set [8], 9.22 µM in data set [9], more than 9.1 µM in data set [10] and 9.02 µM in data set [11].
In the case of `Cc1cc(-c2nc(-c3cc(S(=O)(=O)NC4CCNC(=O)C4)ccc3C)cnc2N)ccn1` (centres unmarked) [Example 134, 3-(5-Amino-6-(2-methylpyridin-4-yl)pyrazin-2-yl)-4-methyl-N-(2-oxopiperidin-4-yl)benzenesulfonamide], the IC50 in data set [1] was 0.35 µM; in data set [2] it was 0.4 µM; in data set [3], more than 10 µM; in [4] it was more than 10 µM; in [5] it was 0.055 µM; in [6], 7.17 µM. For the same molecule, the IC50 in [8] is more than 9.1 µM; in data set [9], more than 10 µM; in [10], 4.33 µM; in data set [11], more than 9.1 µM.
Regarding `Cc1ccc(S(=O)(=O)NCC(C)(C)O)cc1-c1cnc(N)c(-c2cnn(CCN(C)C)c2)n1` [Example 142, 3-(5-Amino-6-(1-(2-(dimethylamino)ethyl)-1H-pyrazol-4-yl)pyrazin-2-yl)-N-(2-hydroxy-2-methylpropyl)-4-methylbenzenesulfonamide], the IC50 in data set [1] is 1 µM; in data set [2], 1 µM; in [3] it was more than 10 µM; in data set [4], more than 10 µM; in data set [5], 0.27 µM; in data set [6], more than 10 µM. Moreover, the IC50 in data set [8] was more than 10 µM; in data set [9] it was more than 10 µM; in data set [10], 6 µM. Further, the “Assay M RLM CI(int)” value in data set [7] came to 34 µL/min/mg.
